# Tested on: 843782-103-R-J1-PDC complex spheroid viability
# Test: Anticancer human tumor 843782-103-R-J1-PDC patient-derived lung adenocarcinoma cell line growth inhibition [RAS]
# Settings: for IC50: curve of first compound; for viability, T/C: stronger effect = lower value
# Outline: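 Tumour cells grown as complex spheroids with HUVEC endothelial cells and mesenchymal stem cells, treated with RAS pathway inhibitor combinations. Each agent spans half-log steps from near clinical Cmax, or 10 microM where Cmax is unknown.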
# 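Further: viability read after seven days of compound exposure.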
compound,measurement,setting,value
C[C@@H](NC(=O)c1ncnc(N)c1Cl)c1ncc(C(=O)Nc2cc(C(F)(F)F)c(Cl)cn2)s1 + C#Cc1c(F)ccc2cc(O)cc(-c3ncc4c(N5CC6CCC(C5)N6)nc(OCC56CCCN5CC(F)C6)nc4c3F)c12,IC50,second compound 0.0316 µM,> 10 µM
same,IC50,second compound 0.1 µM,> 10 µM
same,IC50,second compound 0.316 µM,> 10 µM
same,IC50,second compound 1 µM,> 10 µM
same,IC50,second compound 3.16 µM,> 10 µM
same,IC50,second compound 10 µM,> 10 µM
same,"viability, T/C","second compound 0.0316 µM, first compound 0.0316 µM",114%
same,"viability, T/C","second compound 0.0316 µM, first compound 0.1 µM",97.2%
same,"viability, T/C","second compound 0.0316 µM, first compound 0.316 µM",99.9%
same,"viability, T/C","second compound 0.0316 µM, first compound 1 µM",101%
same,"viability, T/C","second compound 0.0316 µM, first compound 3.16 µM",112%
same,"viability, T/C","second compound 0.0316 µM, first compound 10 µM",101%
same,"viability, T/C","second compound 0.1 µM, first compound 0.0316 µM",112%
same,"viability, T/C","second compound 0.1 µM, first compound 0.1 µM",105%
same,"viability, T/C","second compound 0.1 µM, first compound 0.316 µM",98.6%
same,"viability, T/C","second compound 0.1 µM, first compound 1 µM",101%
same,"viability, T/C","second compound 0.1 µM, first compound 3.16 µM",101%
same,"viability, T/C","second compound 0.1 µM, first compound 10 µM",105%
same,"viability, T/C","second compound 0.316 µM, first compound 0.0316 µM",110%
same,"viability, T/C","second compound 0.316 µM, first compound 0.1 µM",104%
same,"viability, T/C","second compound 0.316 µM, first compound 0.316 µM",103%
same,"viability, T/C","second compound 0.316 µM, first compound 1 µM",102%
same,"viability, T/C","second compound 0.316 µM, first compound 3.16 µM",106%
same,"viability, T/C","second compound 0.316 µM, first compound 10 µM",108%
same,"viability, T/C","second compound 1 µM, first compound 0.0316 µM",101%
same,"viability, T/C","second compound 1 µM, first compound 0.1 µM",100%
same,"viability, T/C","second compound 1 µM, first compound 0.316 µM",105%
same,"viability, T/C","second compound 1 µM, first compound 1 µM",101%
same,"viability, T/C","second compound 1 µM, first compound 3.16 µM",97.2%
same,"viability, T/C","second compound 1 µM, first compound 10 µM",95.9%
same,"viability, T/C","second compound 3.16 µM, first compound 0.0316 µM",86.9%
same,"viability, T/C","second compound 3.16 µM, first compound 0.1 µM",91%
same,"viability, T/C","second compound 3.16 µM, first compound 0.316 µM",90.5%
same,"viability, T/C","second compound 3.16 µM, first compound 1 µM",92.7%
same,"viability, T/C","second compound 3.16 µM, first compound 3.16 µM",80.9%
same,"viability, T/C","second compound 3.16 µM, first compound 10 µM",87.2%
same,"viability, T/C","second compound 10 µM, first compound 0.0316 µM",73.3%
same,"viability, T/C","second compound 10 µM, first compound 0.1 µM",84.3%
same,"viability, T/C","second compound 10 µM, first compound 0.316 µM",64.8%
same,"viability, T/C","second compound 10 µM, first compound 1 µM",48.9%
same,"viability, T/C","second compound 10 µM, first compound 3.16 µM",54.9%
same,"viability, T/C","second compound 10 µM, first compound 10 µM",49.1%

# From PubChem BioAssay AID2060883 (Molecular Pharmacology Branch, DTP, NCI, 2025)
